Measurements as given in article PMC9623576, “Semisynthesis and Evaluation of Anti-Inflammatory Activity of the Cassane-Type Diterpenoid Taepeenin F and of Some Synthetic Intermediates” (Journal of Natural Products, 2022).
Values joined by “and” are separate entries in the source; they are usually repeats but may differ in a detail not shown here. Equal entries are not always repeated.

Assays:
Format in all cases: cell-based
[1] = system: HepG2 human hepatocarcinoma cells; test: MTT cancer cell proliferation assay, HepG2; conditions: Homo sapiens, HepG2, 72 h, MTT; for IC50: read-out: IC50; for IC20: read-out: IC20
Protocol: (§1) The five newly synthesized diterpenoids were evaluated for their cytotoxic effects against three selected tumor cell lines, B16-F10 murine melanoma cells, HT29 human colon adenocarcinoma cells, and HepG2 human hepatocarcinoma cells at increasing concentrations (0–100 μg/mL). After 72 h of treatment, cell viability was determined by an MTT assay, where the tetrazolium dye was transformed into formazan in the mitochondria of viable cells, its absorbance measured at 570 nm and expressed as a percentage with respect to untreated control cells (S3 Figure.). The concentrations required for 20, 50, and for 80% growth inhibition (IC20, IC50, and IC80) were also determined for each compound (Table 2).
(§2) A stock solution was frozen and stored at […]. Before the experiments, this solution was diluted in cell-culture medium to the adequate concentrations for each experiment. […] For nitrite assay, subcytotoxic concentrations (3/4IC50, 1/2IC50, and 1/4IC50), were used to ensure that the NO inhibitory potential was not due to a possible cytotoxic effect. The concentrations of 3/4IC50, 1/2IC50, and 1/4IC50 were used for the cell-cycle analysis. All experiments were measured and compared with control (untreated cells after 24, 48, or 72 h of treatment.)
(§3) Human colorectal adenocarcinoma cell line HT29 (ECACC no. 9172201; ATCC no. HTB-38), human hepatocarcinome cell line HepG2 (ECACC no. 85011430), mouse melanoma cells B16-F10 (ATCC no. CRL-6475), and murine monocyte/macrophage-like RAW 264.7 cell line (ATCC no, TIB-71) were cultured in DMEM (Dulbecco’s modified Eagle’s medium) supplemented with 2 mM glutamine, 10% heat-inactivated FCS (fetal calf serum), 10 000 units/mL of penicillin and 10 mg/mL of streptomycin, (for all cancer cell lines), 50 μg/mL of gentamicin (only for RAW 264.7 cell line), and incubated at 37 °C, in an atmosphere of 5% CO2 and 95% humidity. The culture media were changed every 48 h, and the confluent cultures were separated with a trypsin solution (0.25% EDTA). In all experiments, monolayer cells were grown to 80–90% confluence, in sterile cell culture flasks. All cell lines used were purchased from the cell bank of the University of Granada, Spain.
(§4) The cytotoxicity assay was performed by the MTT (3-(4,5-dimethylthiazol-2-yl)-2,5-diphenyltetrazolium bromide) method.[21] To quantify the cytotoxicity of compounds, the fresh and suspended cells were seeded in 96-well plates to a volume of 100 μL at 6.0 × 10^3 cells/mL for HT29 and RAW 264.7 cell lines, at 5.0 × 10^3 cells/mL for B16-F10 cells and 15.0 × 10^3 for Hep G2. Then, cells were incubated to adhere over 24 h at 37 °C with 5% CO2. All tested compounds were prepared in fresh growth medium. After 24 h, an additional 100 μL of medium with the corresponding concentrations of products (only medium in the control wells) was added to the corresponding wells, at various final concentrations (0–100 μg/mL). Finally, after 72 h of incubation at 37 °C with 5% CO2, the medium with the compounds were removed and 100 μL of MTT solution (0.5 mg/mL) in 50% of PBS 50% of medium was added to each well. After 1.5 h of incubation, formazan was resuspended in 100 μL of DMSO, and each concentration was tested in triplicate. Relative cell viability, with respect to untreated control cells, was measured by absorbance at 570 nm on an ELISA plate reader (Tecan Sunrise MR20-301, TECAN, Austria).
(§5) Cytotoxicity experimental data were fitted to a sigmoidal function (y = ymax/(x/a)^−b) by nonlinear regression. […] These analyses were performed using SigmaPlot 12.5 software. Similar analyses were performed to obtain the IC50 of NO production. All data shown here are representative of at least two independent experiments performed in triplicate. All quantitative data were summarized as the mean ± standard deviation (SD).

[2] = system: B16-F10 murine melanoma cells; test: MTT cancer cell proliferation assay, B16-F10; conditions: Mus musculus, B16-F10, 72 h, MTT; for IC50: read-out: IC50; for IC20: read-out: IC20
Protocol: as §1, §2, §3, §4, §5

[3] = system: NO production in LPS-activated RAW 264.7 macrophage murine cells; test: Inhibition of NO (nitrite) release, Griess reaction
Protocol: The concentrations of nitrites were determined by the Griess reaction.
as §2
Nitrites production was analyzed through the Griess reaction. This nitrite concentration was used as an indicator of NO production.[35] Briefly, RAW 264.7 cells were plated at 6 × 10^3 cells/well in 24-well cell culture plates and supplemented with 10 μg/mL of lipopolysaccharide (LPS). […] The supernatants were collected at 48 and 72 h, to determine their nitrite concentrations and/or stored at −80 °C for further use.
The Griess reaction was performed taking 150 μL of supernatant test samples or sodium nitrite standard (0–120 μM) and mixed with 25 μL of Griess reagent A (0.1% N,N-(1-naphthyl) ethylenediaminedihydrochloride) and 25 μL of Griess reagent B (1% sulfanilamide in 5% of phosphoric acid), in a 96-well plate. After 15 min of incubation at room temperature, the absorbance was measured at 540 nm in an ELISA plate reader (Tecan Sunrise MR20–301, TECAN, Austria). The absorbance was referred to a nitrite standard curve to determine the concentration of nitrite in the supernatant of each experimental sample. The percentage of NO production was determined, assigning 100% at the increase between negative control (untreated cells) and positive control (cells only treated with 10 μg/mL of LPS).

| SMILES | IC50 [1] [µM] | IC80 [1] [µM] | IC20 [1] [µM] | IC50 [2] [µM] | IC80 [2] [µM] | IC20 [2] [µM] | inhibition of NO release ([3]; 48 h, 3/4IC50 concentration) | inhibition of NO release ([3]; 72 h, 3/4IC50 concentration) [%] | inhibition of NO release ([3]; 48 h, 1/2IC50 concentration) [%] |
| --- | --- | --- | --- | --- | --- | --- | --- | --- | --- |
| COC(=O)[C@]1(C)CCC[C@]2(C)c3cc(O)c(C=O)c(C)c3CC[C@@H]12 [Compound 21, (1R,4aS,10aR)-Methyl 7-formyl-6-hydroxy-1,4a,8-trimethyl-1,2,3,4,4a,9,10,10a-octahydrophenanthrene-1-carboxylate] | 37.9 ± 5.4 | 45.3 ± 0.9 | 33.2 ± 8.64 | 7.72 ± 3.92 | 20.1 ± 7.72 | 3.18 ± 2.3 | 76.49% and 76% | 91 | – |
| COC(=O)[C@]1(C)CCC[C@@]2(C)[C@H]1CC=C1C(C)=C(C(C)C)C(=O)C[C@@H]12 [Compound 16, (1R,4aR,10aR)-Methyl 7-isopropyl-1,4a,8-trimethyl-6-oxo-1,2,3,4,4a,4b,5,6,10,10a-decahydrophenanthrene-1-carboxylate] | 18.5 ± 4.73 | – | 5.05 ± 2.74 | 22.2 ± 1.16 | 35.8 ± 3.35 | 14.2 ± 0.19 | 85.13% | 80 | 59.95 |
